The results in this text go back to patent US5610297A, “Peptides ketoamides” (Georgia Tech Research Corp., priority 1995, dated 1997).

Each structure is given as a SMILES string. pKi: −log10 of the molar value.

One series concerns the target Calpain II from rabbit muscle. Kind of series: Inhibition of calpain II (Suc-Leu-Tyr-AMC hydrolysis). The format is biochemical.
Conditions: not given
How it is done:
Materials and Methods. HEPES, heparin, and A23187 were obtained from Calbiochem. Suc-Leu-Tyr-AMC and chromogenic substrates were obtained from Sigma. Calpain I was purified from human erythrocytes according to the method of Kitahara (Kitahara et al., J. Biochem. 95, 1759-1766) omitting the Blue-Sepharose step. Calpain II from rabbit muscle and cathepsin B were purchased from Sigma. Papain was purchased from Calbiochem.
(§1) Assay of Inhibitory Potency. Peptide α-ketoamides were assayed as reversible enzyme inhibitors. Various concentrations of inhibitors in Me2 SO were added to the assay mixture which contained buffer and substrate. The reaction was started by the addition of the enzyme and the hydrolysis rates were followed spectrophotometrically or fluorimetrically.
Calpain I from human erythrocytes and calpain II from rabbit were assayed using Suc-Leu-Tyr-AMC [Sasaki et al., J. Biol. Chem. 259, 12489-12494 (1984); incorporated herein by reference], and the AMC (7-amino-4-methylcoumarin) release was followed fluorimetrically (excitation at 380 nm, and emmision at 460 nm). Calpains were assayed in 25 mM Tris pH=8.0, 10 mM CaCl2. Fluorescence was followed using a Gilson FL-1A fluorometer or a Perkin-Elmer 203 Fluorescence spectrometer. Cathepsin B was assayed in 20 mM sodium acetate pH=5.2, 0.5 mM dithiothreitol using Bz-Phe-Val-Arg-p-nitroanilide as substrate. Alternately, cathepsin B was assayed with Z-Arg-Arg-AFC [Barrett and Kirschke, Methods Enzymol. 80, 535-561 (1981); incorporated herein by reference], and the AFC (7-amino-4-trifluoromethylcoumarin) release was followed fluorimetrically (excitation at 400 nm and emmision at 505 nm). Papain was assayed in 100 mM KPO4, 1 mM EDTA, 2.5 mM cysteine pH=6.0 using Bz-Arg-AMC or Bz-Arg-NA [Kanaoka et al., Chem. Plmrm. Bull. 25, 3126-3128 (1977); incorporated herein by reference] as a substrate. The AMC (7-amino-4-methylcoumarin) release was followed fluorimetrically (excitation at 380 nm, and emmision at 460 nm). Enzymatic hydrolysis rates were measured at various substrate and inhibitor concentrations, and KI values were determined by either Lineweaver-Burk plots or Dixon plots.
(§2) A 0.1M Hepes, 0.5M NaCl, pH 7.5 buffer was utilized for human leukocyte elastase (HLE), porcine pancreatic elastase (PPE), chymotrypsin and cathepsin G. A 0.1 Hepes, 0.01M CaCl2, pH 7.5 buffer was utilized for trypsin, plasmin, and coagulation enzymes. A 50 mM Tris-HCl, 2 mM EDTA, 5 mM cysteine, pH 7.5 was used as a buffer for papain. A 88 mM KH2 PO4, 12 mM Na2 HPO4, 1.33 mM EDTA, 2.7 mM cysteine, pH 6.0 solution was used as a buffer for cathepsin B. A 20 mM Hepes, 10 mM CaCl2, 10 mM mercatoethanol, pH 7.2 buffer was utilized for calpain I and calpain II.
Broadly, the pKi is −log10 of the Ki, conventionally taken in molar units. In the case of `CCNC(=O)C(=O)[C@H](CC)NC(=O)[C@H](CC(C)C)NC(=O)OCc1ccccc1` [Z--Leu--Abu--CONH--Et, Z-Leu-Abu-CONH-Et], the pKi was 6.64.

As for `CCNC(=O)C(=O)[C@H](Cc1ccccc1)NC(=O)[C@H](CC(C)C)NC(=O)OCc1ccccc1` [Z--Leu--Phe--CONH--Et, Z-Leu-Phe-CONH-Et], the pKi was 6.49.

`CCCNC(=O)C(=O)C(Cc1ccccc1)NC(=O)C(CC(C)C)NC(=O)OCc1ccccc1` (stereo not drawn) [Z--Leu--Phe--CONH--nPr, Z-Leu-Phe-CONH-nPr] gave a pKi of 7.30.

A further series concerns the target chymotrypsin (Bos taurus, UniProt P00766, DEL14-15/DEL147-148). Kind of series: Inhibition of chymotrypsin (Suc-Val-Pro-Phe-NA hydrolysis). Format: biochemical, bovine.
Conditions: not given
As to the method: as §1, §2
(§3) HLE and PPE were assayed with MeO-Suc-Ala-Ala-Pro-Val-NA and Suc-Ala-Ala-Ala-NA, respectively [Nakajima et al., J. Biol. Chem. 254, 4027-4032 (1979); incorporated herein by reference]. Human leukocyte cathepsin G and chymotrypsin Aα were assayed with Suc-Val-Pro-Phe-NA [Tanaka et al., Biochemistry 24, 2040-2047 (1985); incorporated herein by reference]. The hydrolysis of peptide 4-nitroanilides was measured at 410 nm [ε410 =8800 M^-1 cm^-1; Erlanger et al., Arch. Biochem. Biophys. 95, pp 271-278 (1961); incorporated herein by reference]. Trypsin, thrombin, human plasma kallikrein, porcine pancreatic kallikrein, human factor XIa, and human plasmin were assayed with Z-Arg-SBzl or Z-Gly-Arg-SBu-i [McRae et al., Biochemistry 20, 7196-7206 (1981); incorporated herein by reference]. All peptide thioester hydrolysis rates were measured with assay mixtures containing 4,4'-dithiodipyridine [ε324 =19800 M^-1 cm^-1; Grasetti & Murray, Arch. Biochem. Biophys. 119, 41-49 (1967); incorporated herein by reference].
As for `CCNC(=O)C(=O)[C@H](CC)NC(=O)[C@H](CC(C)C)NC(=O)OCc1ccccc1` [Z--Leu--Abu--CONH--Et, Z-Leu-Abu-CONH-Et], the pKi is less than 3.82.

The compound `CCCCNC(=O)C(=O)C(CC)NC(=O)C(CC(C)C)NC(=O)OCc1ccccc1` (stereo not drawn) [Z--Leu--Abu--CONH--nBu, Z-Leu-Abu-CONH-nBu] showed a pKi of less than 3.52.

`CCNC(=O)C(=O)[C@H](Cc1ccccc1)NC(=O)[C@H](CC(C)C)NC(=O)OCc1ccccc1` [Z--Leu--Phe--CONH--Et, Z-Leu-Phe-CONH-Et] showed a pKi of 4.14.

On to `CCCNC(=O)C(=O)C(Cc1ccccc1)NC(=O)C(CC(C)C)NC(=O)OCc1ccccc1` (stereo not drawn) [Z--Leu--Phe--CONH--nPr, Z-Leu-Phe-CONH-nPr], for which the pKi was 4.74.

The target in the next series is porcine pancreatic elastase (PPE) (Sus scrofa, UniProt P00772). Kind of series: Inhibition of PP elastase (Suc-Ala-Ala-Ala-NA hydrolysis). The format is biochemical.
porcine pancreatic elastase (PPE), sequence (P00772 27-266): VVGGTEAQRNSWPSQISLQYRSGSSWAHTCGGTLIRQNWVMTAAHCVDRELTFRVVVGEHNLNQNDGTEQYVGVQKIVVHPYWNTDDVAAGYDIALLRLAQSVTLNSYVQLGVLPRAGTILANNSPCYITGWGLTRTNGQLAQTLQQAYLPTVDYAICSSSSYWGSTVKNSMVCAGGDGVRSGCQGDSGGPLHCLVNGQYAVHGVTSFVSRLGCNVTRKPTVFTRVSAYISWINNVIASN
Conditions: not given
How it is done: as §1, §2, §3
As to `CCNC(=O)C(=O)[C@H](CC)NC(=O)[C@H](CC(C)C)NC(=O)OCc1ccccc1` [Z--Leu--Abu--CONH--Et, Z-Leu-Abu-CONH-Et], the pKi is 4.19.

In the case of `CCCCNC(=O)C(=O)C(CC)NC(=O)C(CC(C)C)NC(=O)OCc1ccccc1` (stereo not drawn) [Z--Leu--Abu--CONH--nBu, Z-Leu-Abu-CONH-nBu], the pKi was 5.30.

Consider `CCNC(=O)C(=O)[C@H](Cc1ccccc1)NC(=O)[C@H](CC(C)C)NC(=O)OCc1ccccc1` [Z--Leu--Phe--CONH--Et, Z-Leu-Phe-CONH-Et], for which the pKi was less than 3.82.

Turning to `CCCNC(=O)C(=O)C(Cc1ccccc1)NC(=O)C(CC(C)C)NC(=O)OCc1ccccc1` (stereo not drawn) [Z--Leu--Phe--CONH--nPr, Z-Leu-Phe-CONH-nPr], the negative-log Ki (pKi) is less than 3.52.

System in another series: not listed separately
As to the kind of experiment: Half-life in plasma. The format is in vitro ADME. Particulars: unit inferred, unit assumed.
With `CCNC(=O)C(=O)[C@H](CC)NC(=O)[C@H](CC(C)C)NC(=O)OCc1ccccc1` [Z--Leu--Abu--CONH--Et, Z-Leu-Abu-CONH-Et], the t 1/2 plasma is more than 60 min.

Take `CCCCNC(=O)C(=O)C(CC)NC(=O)C(CC(C)C)NC(=O)OCc1ccccc1` (stereo not drawn) [Z--Leu--Abu--CONH--nBu, Z-Leu-Abu-CONH-nBu]: the t 1/2 plasma is more than 60 min.

Compound `CCNC(=O)C(=O)[C@H](Cc1ccccc1)NC(=O)[C@H](CC(C)C)NC(=O)OCc1ccccc1` [Z--Leu--Phe--CONH--Et, Z-Leu-Phe-CONH-Et] returned a t 1/2 plasma of more than 60 min.

Take `CCCNC(=O)C(=O)C(Cc1ccccc1)NC(=O)C(CC(C)C)NC(=O)OCc1ccccc1` (stereo not drawn) [Z--Leu--Phe--CONH--nPr, Z-Leu-Phe-CONH-nPr]: the t 1/2 plasma is more than 60 min.

System in another series: not listed separately
As to the kind of experiment: Half-life in liver. The format is in vitro ADME. Particulars: unit inferred, unit assumed.
`CCNC(=O)C(=O)[C@H](CC)NC(=O)[C@H](CC(C)C)NC(=O)OCc1ccccc1` [Z--Leu--Abu--CONH--Et, Z-Leu-Abu-CONH-Et] came in with a t 1/2 liver of more than 60 min.

For `CCCCNC(=O)C(=O)C(CC)NC(=O)C(CC(C)C)NC(=O)OCc1ccccc1` (stereo not drawn) [Z--Leu--Abu--CONH--nBu, Z-Leu-Abu-CONH-nBu], the t 1/2 liver is more than 60 min.

`CCNC(=O)C(=O)[C@H](Cc1ccccc1)NC(=O)[C@H](CC(C)C)NC(=O)OCc1ccccc1` [Z--Leu--Phe--CONH--Et, Z-Leu-Phe-CONH-Et] registered a t 1/2 liver of more than 60 min.

For `CCCNC(=O)C(=O)C(Cc1ccccc1)NC(=O)C(CC(C)C)NC(=O)OCc1ccccc1` (stereo not drawn) [Z--Leu--Phe--CONH--nPr, Z-Leu-Phe-CONH-nPr], the t 1/2 liver is more than 60 min.

The next series concerns Calpain-mediated breakdown of spectrin in platelets. Kind of series: Platelet membrane permeability assay. Format: cell-based, rat. Particulars: numeric value, unit not given. Set-up: unit not given here. As to the method:
Platelet membrane permeability assay. Calpain-mediated breakdown of spectrin was measured by quantitative densitometry of the calpain-specific 150/155 kDa spectrin fragment doublet [see Siman et al., Proc. Natl. Acad. Sci. USA 81, 3572-3576 (1984)]. Platelets were isolated by a modification of the method of Ferrell and Martin [J. Biol. Chem. 264, 20723-20729 (1989)]. Blood (15-20 ml) was drawn from male Sprague-Dawley rats into 1/10th volume of 100 mM EDTA-citrate, and centrifuged 10 minutes at 2000 rpm in a clinical centrifuge at room temperature. […] Platelets were washed once in 15 ml buffer 1, then resuspended to 10^7 cells/ml in buffer 2 (136 mM NaCl, 2.7 mM KCl, 0.42 mM NaH2 PO4, 12 mM NaHCO3, 2mM MgCl, 1 mg/ml BSA (Sigma), 5.6 mM glucose, 20 mM HEPES (Sigma) pH 7.4) and allowed to "rest" for a minimum of 10 minutes at room temperature before use.
Inhibitors were added from stock solutions made fresh in DMSO. 100 μl platelets, suspended to 10^7 cells/ml in buffer 2, were incubated with 1 μl of an inhibitor solution for 5 minutes at room temperature prior to the addition of 2 mM Ca^2+ and 1 uM A23 187. After 10 minutes total exposure to inhibitor (5 minutes exposure to ionophore) at room temperature, platelets were reisolated at 14,000 rpm for 10 sec in a Beckman microfuge, dissolved in SDS-PAGE sample buffer, and heated to 90° C. for 3 minutes.
Samples were subjected to SDS-PAGE in 4-12% gradient mini gels (Novex) and transferred to nitrocellulose (Schleicher and Schuell 0.45 um) by electroblotting. Filters were blocked for 10 minutes in 0.25% gelatin, 1% BSA, 0.25% triton X100, 0.9% NaCl, 10 mM Tris-Cl pH 7.5, incubated overnight in the same solution containing antibody to rat spectrin, washed 3×10 minutes with 10 mM Tris-Cl pH 7.5, 0.5% triton X100, incubated 4 hours in wash buffer plus alkaline phosphatase conjugated goat anti-rabbit antibody (Biorad), and washed as above. Blots were developed using the Biorad AP conjugate substrate kit. Quantitative densitometry was used to obtain values for the intact spectrin bands and the 150/155 kDa breakdown product doublet.
`CCNC(=O)C(=O)[C@H](CC)NC(=O)[C@H](CC(C)C)NC(=O)OCc1ccccc1` [Z--Leu--Abu--CONH--Et, Z-Leu-Abu-CONH-Et]: the “platelet (Activity in the Platelet Assay)” value (shortened to “platelet”) turned out to be 1.5.

As for `CCCCNC(=O)C(=O)C(CC)NC(=O)C(CC(C)C)NC(=O)OCc1ccccc1` (stereo not drawn) [Z--Leu--Abu--CONH--nBu, Z-Leu-Abu-CONH-nBu], the “platelet” value came out at 2.0.

For the compound `CCNC(=O)C(=O)[C@H](Cc1ccccc1)NC(=O)[C@H](CC(C)C)NC(=O)OCc1ccccc1` [Z--Leu--Phe--CONH--Et, Z-Leu-Phe-CONH-Et], the “platelet” value was found to be 1.7.

With `CCCNC(=O)C(=O)C(Cc1ccccc1)NC(=O)C(CC(C)C)NC(=O)OCc1ccccc1` (stereo not drawn) [Z--Leu--Phe--CONH--nPr, Z-Leu-Phe-CONH-nPr], the “platelet” value is given as 24.
